From publication PMC8351955, “Targeting Mycobacterium tuberculosis response to environmental cues for the development of effective antitubercular drugs” (PLoS Biology, 2021)
Where two headings read alike, the source gives them in different places.

How the values were obtained:
Experiment in all cases: microbe, parasite or virus in culture
Type in all cases: cell-based, Mycobacterium tuberculosis
[1] = test system: CDC1551(rv2390c′::GFP) reporter Mtb strain, response to high [Cl−]; settings: for activity at 10 µM / activity at 20 µM: 144 h; for activity at 20 µM: read-out: rv2390c'::GFP validation assay NPA% at 20 µM compound
[2] = test system: Mtb growth in J774 murine macrophage-like cells; settings: Mycobacterium tuberculosis
[3] = test system: CDC1551(rv1405c′::GFP) reporter Mtb strain; settings: for activity at 10 µM: read-out: rv1405c'::GFP secondary assay NPA% at 10 µM compound; for activity at 20 µM: read-out: rv1405c'::GFP secondary assay NPA% at 20 µM compound
[4] = Mycobacterium tuberculosis, pH 6.4, […], DMSO positive control = 100%, read-out: Primary screen rv2390c'::GFP NPA%
[5] = Mycobacterium tuberculosis, 10 µM, pH 6.4, 250 mM NaCl, 6 days, read-out: rv2390c'::GFP validation assay NPA% at 10 µM compound
[6] = Mycobacterium tuberculosis, pH 6.4, 250 mM NaCl, 6 days

Row | SMILES | validation NPI at 10 uM ([1]; 10 uM) | validation NPI at 20 uM ([1]; 20 uM) | activity at 10 µM [1, 4] [%] | activity at 10 µM [1, 5] [%] | activity at 20 µM [1, 6] [%] | IC50 ([1]; Mycobacterium tuberculosis, read-out: ShuminTan.MtbChloride.Validation: IC50) [µM] | ShuminTan.MtbChloride.Primary: NPI% ([1]; primary screen, Sheet2) [%] | inhibition at 20 µM ([2]; J774, read-out: %inhibition compared to Rif in J774 at 20 uM) [%] | IC50 ([2]; J774 dose response 0.039-20 µM, read-out: ShuminTan.Mtb.Validation.Macrophage: IC50) [µM] | rv1405c assay NPI at 10 uM ([3]; 10 uM) | rv1405c assay NPI at 20 uM ([3]; 20 uM) | IC50 ([3]; Mycobacterium tuberculosis, read-out: ShuminTan.MtbChloride.Secondary: IC50) [µM] | activity at 10 µM ([3]; Mycobacterium tuberculosis) [%] | activity at 20 µM ([3]; Mycobacterium tuberculosis) [%]
1 | Cc1ccc(NS(=O)(=O)c2ccc(C)c(F)c2)c(C(=O)O)c1 [RU-0273440, CC1=CC(C(O)=O)=C(NS(=O)(=O)C2=CC(F)=C(C)C=C2)C=C1] | 60.2 | 37.8 | 49.3 | 60.2 ± 7.2 | 37.7 ± 5.2 | > 20 | 49.3142 | 18.3 | > 20 | 34 | 23.8 | < 0.0391 | 33.8 ± 5.6 | 23.3 ± 4.7
2 | COc1ccc(OC)c(C2CCCN2C(=O)NCc2cccs2)c1 (stereo not shown) [RU-0273525, COC1=CC(C2CCCN2C(=O)NCC2=CC=CS2)=C(OC)C=C1] |  |  | 150 | 158 ± 14.1 | 232 ± 6.9 |  |  |  |  |  |  |  | 119 ± 11.1 | 184 ± 6.5
3 | CCOc1cc(F)ccc1NC(=O)Nc1cccc(C#N)c1 [RU-0273629, CCOC1=C(NC(=O)NC2=CC(=CC=C2)C#N)C=CC(F)=C1] |  |  | 170 | 203 ± 16.4 | 318 ± 21.4 |  |  |  |  |  |  |  | 188 ± 18 | 540 ± 65.6
4 | Cc1cc(NS(=O)(=O)Cc2cccc(C(F)(F)F)c2)n(C)n1 [RU-0274447, CN1N=C(C)C=C1NS(=O)(=O)CC1=CC(=CC=C1)C(F)(F)F] |  |  | 186 | 171 ± 11.2 | 252 ± 10.1 |  |  |  |  |  |  |  | 303 ± 7.6 | 619 ± 9.2
5 | CCc1nnc(NC(=O)c2sc(CC(C)C)nc2C)s1 [RU-0274734, CCC1=NN=C(NC(=O)C2=C(C)N=C(CC(C)C)S2)S1] |  |  | 170 | 150.7 ± 1.2 | 178 ± 7.2 |  |  |  |  |  |  |  | 97.2 ± 4.2 | 102 ± 3.9
6 | Cc1ccc(NC(=O)c2cc(C)n(C3CC3)c2C)c(C)c1 [RU-0276186, CC1=CC(C(=O)NC2=C(C)C=C(C)C=C2)=C(C)N1C1CC1] |  |  | 159 | 105 ± 5.3 | 157 ± 13.8 |  |  |  |  |  |  |  | 95.4 ± 4.5 | 123 ± 13.3
7 | CCc1ccc(NC(=O)C2(N(C)C)Cc3ccccc3C2)cc1 [RU-0276433, CCC1=CC=C(NC(=O)C2(CC3=C(C2)C=CC=C3)N(C)C)C=C1] |  |  | 157 | 124 ± 10.1 | 186 ± 4.9 |  |  |  |  |  |  |  | 171 ± 9.3 | 312 ± 25.3
8 | CC(C)(C)n1cc(C#N)c(NS(=O)(=O)c2cccc(F)c2)n1 [RU-0277089, CC(C)(C)N1C=C(C#N)C(NS(=O)(=O)C2=CC(F)=CC=C2)=N1] |  |  | 45.4 | 51.2 ± 5.5 | 28.2 ± 0.7 |  |  |  |  |  |  |  | 43.2 ± 4.1 | 17.4 ± 5.4
9 | COc1ccc(COc2ccccc2NC(C)=O)cc1Br [RU-0277875, COC1=C(Br)C=C(COC2=C(NC(C)=O)C=CC=C2)C=C1] |  |  | 175 | 138 ± 7.5 | 229 ± 11.9 |  |  |  |  |  |  |  | 139 ± 5.6 | 199 ± 12.2
10 | CC(C)c1cc(C(=O)NC2CCN(c3cccc(F)c3)CC2)n[nH]1 [RU-0278450, CC(C)C1=CC(=NN1)C(=O)NC1CCN(CC1)C1=CC(F)=CC=C1] |  |  | 175 | 118 ± 5.7 | 231 ± 1 |  |  |  |  |  |  |  | 92.3 ± 5.3 | 146 ± 5.1
11 | Cn1cc(CCC(=O)Nc2ccc3c(c2)S(=O)(=O)C=C3)cn1 [RU-0278569, CN1C=C(CCC(=O)NC2=CC3=C(C=CS3(=O)=O)C=C2)C=N1] |  |  | 47.1 | 80.9 ± 7.4 | 63.4 ± 5.6 |  |  |  |  |  |  |  | 74.5 ± 5.4 | 76.5 ± 4.9
